Results from patent publication US20070166547A1, “Use of a layer consisting of hydrophobic linear, or two-dimensional polycyclic aromatics as a barrier layer or an encapsulation and electric components constructed with a layer of this type and comprising organic polymers” (priority 2003, published 2007).

What was measured:
[1] = test system: embyronic fibroblasts of mouse NIH-3T3; assay: Endocellular pHi of fibroblasts by microspectrofluorimetry (FDA, BCECF-AM); assay type: cell-based; conditions: for rise of pHi: fibroblasts in an attached spread state; for increase of pHi: 20 minutes
Experimental: The effect of the compounds according to the invention on the endocellular pH, embyronic fibroblasts of mouse NIH-3T3 supplied by the All-Russian Collection of Cellular Cultures of the Institute of Cytology of the Russian Academy of Sciences St. Petersburg was investigated. The cells were grown in the DMEM (Sigma) medium containing 2.2 g/l of sodium bicarbonate with addition of 80.0 mkg/ml of gentamicin and 10.0% embryonal veal serum at a temperature of 37° C. in an atmosphere containing 5.0% of carbon dioxide. For these experiments use was also made of a medium buffer with 5.0 mM of HEPES and 15.0 mM of sodium bicarbonate without serum or with addition of 5.0% serum. The cells were calculated with the help of a hemocytometer. A share of the dead cells was determined by colouring trypan blue.
The measurements of the endocellular pHi were carried out with the help of colorants FDA (Sigma) and BCECF-AM (Calbiochem) on a microspectrofluorimeter by a standard technique (Koshevoy Yu. V., Akatov V. S., Grobova M. E. Microspectrofluorimeter for measuring endocellular pH (micro pH)”. Devices and equipment for studies in the field of physical-and-chemical biology and biotechnology. Pushchino, 1990. P. 8-14).
The cells at a temperature of 37° C. were colored within 5 minutes with 5.0 mkM PDA that before the colouring was prepared from a 10.0 mM solution in acetone by dilution for 30 minutes in a phosphatic buffer to 0.1 mM or 2.0 mkM 1.0 mM solution BCECF-AM in DMSO.
The two-wave method of determining pHi was used based on the ratio intensities of fluorescence of the cells on two wavelengths (Akatov V. S. et all), “Endocellular pH and substrate dependence of proliferation of fibroblasts of Chinese hamster, Cytology, 1991, 33 (7), p. 86-94). The fluorescence was excited by light at λ=490 nm, the emission was recorded simultaneously with two photomultipliers on wavelengths λ=535 nm and λ=570 nm. The K-ratio of the fluorescence on two wavelengths was determined with a deduction of the background fluorescence of the medium near the investigated cells for 40-60 individual cells, which are then averaged taking into account the measurement error. A thermostatically controlled table was used that allowed measurements to be conducted at a temperature of 37° C. An account was taken for the photodynamic damage of the pigmented cells during-long-time continuous illumination by excited light. The readings were taken from a section of the preparation exposed to light for not more than 5 minutes.
The calibration curves for determining the absolute pHi values by magnitude K were constructed using the Thomas technique (Thomas J. A., Bushbaum R. N., Zimniak A. w Racker E. “Intracellular pH measurements in Ehrlich ascites tumor cells utilizing spectroscopic probe generated in situ”, Biochemistry, 1979, v. 18, p. 2210-2218), for which case the pigmented cells treated for 5-10 minutes with carboxyacidic nigericyn (Calbiochem) at a concentration of 5-10 mkg/ml was placed in a solution with a high content of potassium—130 mM KCl, 1.0 mM MgCl2, 20.0 mM of HEPES) and with pH values from 6.2 to 7.6. The K values were measured in the media with different pH assuming that pHi of the cells equals to the pH of the medium due to the action of nigericyn, which exchanges potassium ions for protons and at a high content of potassium in the medium counterbalances the pH of the medium and cells. Calibration curves were used based on the fluorescence of same medium with addition of 5.0 mkM of fluorescence or BCECF were used to the control the stability of the of the instrument readings.
The correctness of the technique was confirmed in the experiments on measurements of pH values of cells treated with protonofor monencine raising pH of the cells due to replacement of sodium ions by protons, and by determining the dependence of the change of pHi on the change of the pH of the medium. […]

[2] = Polarographic study of electrochemical reduction (electrochemical activity); assay type: physicochemical; conditions: for number of electrons participating in the reduction: calculated with the Geirovsky-Ilkovich equation; for i, mkA (polarographic wave current) / −E1/2, V (half-wave potential vs SCE): 37° C., forward trace, average for the group; for i, mkA (polarographic wave current): 9·10^−4 M; for half-wave potential more positive on reverse stroke than on forward stroke: reverse stroke vs forward stroke
Experimental: The study was carried out on a general-purpose polarograph PU-1 with a two-coordinate recorder of the “LKD” type using a three-electrode thermostatically controlled polarographic cell and mercury dripping electrode (MDE) with forced separation of the drop and a dropping period of 0.5 second. A platinum wire was used as an auxiliary electrode and a saturated calomel electrode (SCE) was used as a control electrode.
2.0% solutions of sodium chloride having pH 7.0, 7.2, 7.4, 7.6 were used as a background; the pH values of the background solution were corrected by a solution of sodium hydroxide. The polarographic cell was filled with 5.0 ml of the background solution and for 5 minutes was purged with nitrogen for removing the dissolved oxygen. Then 0.5 ml of solution of the studied substance was added to the background solution, and the polarogram was recorded as a polarographic wave. The concentration of the compounds in the polarographic cell was 9·10^−4 M.
The pH was measured on the pH-meter with an accuracy of ±0.05 pH units. The polarographic measurements were carried out at a temperature of 37° C. The recording of polarograms of the investigated materials was effected under conditions of DC current at a scanning rate of the potential 10.0 mV/s with a active scanning stroke from a potential 0 to −0.5 V and sweep retrace from a −0.5 V to 0. The electric-current sensitivity was 5.0 mkA. The scale by the coordinate of the potentials was 50.0 mV/cm. The values of potentials of the half-wave E1/2 of the investigated materials are given with respect to the SCE potential.
The polarogram parameters such as a limiting current ilim and E1/2 were determined by the graphic method. The number of electrons participating in the reaction was calculated on the basis of the analysis of the polarographic wave using the Geirovsky-Ilkovich equation.

[3] = medium with 10.0% blood serum, 0.02 mkg/ml, suspension
[4] = medium with 10.0% blood serum, 0.2 mkg/ml, suspension
[5] = medium with 10.0% blood serum, 2.0 mkg/ml, suspension
[6] = medium with 10.0% blood serum, 20.0 mkg/ml, suspension
[7] = medium without blood serum, 0.02 mkg/ml
[8] = medium without blood serum, 0.2 mkg/ml
[9] = medium without blood serum, 2.0 mkg/ml
[10] = medium without blood serum, 20.0 mkg/ml
[11] = medium without blood serum, 200 mkg/ml
[12] = medium without blood serum, 1000 mkg/ml

Structure (SMILES) | rise of pHi ([1]; 2.0 mkg/ml) [unit pHi] | rise of pHi ([1]; 20.0 mkg/ml) [unit pHi] | increase of pHi [1, 3] | increase of pHi [1, 4] [unit pH] | increase of pHi [1, 5] [unit pH] | increase of pHi [1, 6] | increase of pHi [1, 7] | increase of pHi [1, 8] | increase of pHi [1, 9] [unit pHi] | increase of pHi [1, 10] [unit pHi] | increase of pHi [1, 11] | increase of pHi [1, 12] | number of electrons participating in the reduction [2] | i, mkA (polarographic wave current) ([2]; pH 7.0) [mkA] | −E1/2, V (half-wave potential vs SCE) ([2]; pH 7.0) [V] | i, mkA (polarographic wave current) ([2]; pH 7.2) [mkA] | i, mkA (polarographic wave current) ([2]; pH 7.4) [mkA] | −E1/2, V (half-wave potential vs SCE) ([2]; pH 7.4) [V] | i, mkA (polarographic wave current) ([2]; pH 7.6) [mkA] | −E1/2, V (half-wave potential vs SCE) ([2]; pH 7.6) [V] | also measured
O=C([O-])c1ccc2c(=O)[nH][nH]c(=O)c2c1.O=C([O-])c1ccc2c(=O)[nH][nH]c(=O)c2c1.[Na+].[Na+] [Compound 18, disodium salt of 6-carboxy-benzo[d]-3H-pyridazine-1,4-dione] | 0.10 | 0.07 | do not initiate a change of pH | 0.1 | 0.12 | do not initiate a change of pH | no effect was found | no effect was found | 0.08 | 0.08 | no effect was found | no effect was found | 4.09 | 0.23 ± 0.03 | 0.092 ± 0.02 | 0.30 ± 0.01 | 0.29 ± 0.02 | 0.092 ± 0.02 | 0.31 ± 0.02 | 0.09 ± 0.01 | −E1/2, V (half-wave potential vs SCE) ([2]; pH 7.2): 0.09 ± 0.01 V; half-wave potential more positive on reverse stroke than on forward stroke [2]: 30.0 mV
O=c1[nH][nH]c(=O)c2ncncc12.[Li] [Compound 35, lithium salt of pyrimido[4,5-d]-6H-pyridazine-5,8-dione] | 0.10 | 0.07 | do not initiate a change of pH | 0.1 | 0.12 | do not initiate a change of pH | no effect was found | no effect was found | 0.08 | 0.08 | no effect was found | no effect was found | 3.5 | 0.30 ± 0.05 | 0.08 ± 0.02 | 0.26 ± 0.02 | 0.30 ± 0.03 | 0.085 ± 0.02 | 0.30 ± 0.02 | 0.09 ± 0.02 | half-wave potential more positive on reverse stroke than on forward stroke [2]: 27.0 mV
O=c1[nH][nH]c(=O)c2ncccc12.[Na] [Compound 7, sodium salt of pyrido[2,3-d]-6H-pyridazine-5,8-dione] | 0.10 | 0.07 | do not initiate a change of pH | 0.1 | 0.12 | do not initiate a change of pH | no effect was found | no effect was found | 0.08 | 0.08 | no effect was found | no effect was found | 3.72 | 0.26 ± 0.04 | 0.11 ± 0.02 | 0.31 ± 0.02 | 0.27 ± 0.03 | 0.105 ± 0.01 | 0.30 ± 0.01 | 0.105 ± 0.02 | −E1/2, V (half-wave potential vs SCE) ([2]; pH 7.2): 0.11 ± 0.03 V; half-wave potential more positive on reverse stroke than on forward stroke [2]: 25.0 mV
